Results on 17 molecules are retold here after US11027027B2, “Pyridazinoindole compounds and methods for PET imaging” (Vanderbilt University, priority 2015, dated 2021).

Read-outs that look alike come from different tables or passages of the source.

Data set [1] has as its target T1, TSPO (Rattus norvegicus, UniProt P16257). Details: frozen and thawed three times in lysis buffer; endogenous in cells; host or cells: C6 rat glioma cells. Particulars: cited from earlier work.
For data set [2], the target named is T1, TSPO. Description: TSPO radiometric binding assay, kidney lysate, displacement of [3H]PK11195. As for the experimental part:
(§1) Affinities are expressed as Ki±S.E.M. (pM) in Table 1. All experiments were performed in triplicate.
(§2) Male Wistar rats were sacrificed and the heart and kidney collected and dissected. The tissues were homogenized in 20 volumes of ice-cold PBS buffer (pH 7.4) with a Brinkmann microhomogenizer (Kinematica AG, Luzern, SW). The homogenate was collected at a protein concentration of 5.0 mg/mL and stored at −80° C. C6 cells were collected and washed with PBS buffer three times, and then frozen and thawed three times in lysis buffer (5.0 mM HEPES, 0.21 M D-mannitol, 0.07 M sucrose, 2.0 mM benzamidine, 2.0 mM toluenesulfonyl fluoride, 4.0 mM MgCl2, pH 7.4) to produce C6 cell lysate (0.5 mg/mL). […] The reaction was terminated by rapid filtration through a Brandel harvester (Gaithersburg, Md., USA) and collection onto a filter presoaked with 0.3% polyethyleneimine. Filters were then punched out into scintillation vials and bound radioactivity measured on a Beckman LS 6000 Scintillation Counter (Brea, Calif., USA). […] All experiments were performed in triplicate.

Data set [3] concerns the target T1, TSPO. As to the kind of experiment: TSPO radiometric binding assay, heart lysate, displacement of [3H]PK11195. As for the experimental part:
as §1, §2

Data set [4] concerns the target T1, TSPO. Description: TSPO radiometric binding assay, C6 glioma cell lysate, displacement of [3H]PK11195. Details: frozen and thawed three times in lysis buffer; endogenous in cells; host or cells: C6 rat glioma cells. Here is the method:
as §1, §2

For data set [5], the target named is central benzodiazepine receptor (CBR). As to the kind of experiment: CBR binding assay, displacement of [3H]flunitrazepam in rat brain (cerebral cortex) lysate. The conditions noted are these: rat brain lysate / cerebral cortex membranes; selectivity for TSPO over CBR; read-out: Ki versus [3H]flunitrazepam. As for the experimental part: as §1
The homogenate was collected at a protein concentration of 5.0 mg/mL and stored at −80° C. […] All experiments were performed in triplicate.

The target in data set [6] is T1, TSPO. As to the kind of experiment: Binding affinity to TSPO of fluorescent probes. An excerpt:
Binding affinity to TSPO of fluorescent probes 23-29.

Another data set addresses PBR (Homo sapiens, UniProt P30536). Particulars: cited from earlier work.
The target of data set [7] is T1, TSPO. Description: In vivo PET displacement study with non-radioactive 14 in C6-bearing rats. Details: frozen and thawed three times in lysis buffer; endogenous in cells; host or cells: C6 rat glioma cells. Here is the method:
Specific Binding of [^18F]-14 in Rats. To evaluate the in vivo TSPO specificity of [^18F]-14, the present inventors performed displacement studies in C6-bearing rats using the non-radioactive analog (14). As shown in the TAC in FIG. 1H, during the dynamic PET study, a bolus (IV) infusion of nonradioactive 14 (10 mg/kg) was administered approximately 30 minutes after injection of [^18F]-14. […] During tumor displacement, the present inventors observed a minor influx of tracer into normal brain (green). The displaced [^18F]-14 then rapidly cleared the normal brain and entered the plasma, subsequently elevating plasma (red) radioactivity.
PET/CT was performed within 24 hours of MRI in rats with confirmed tumors. Tumor-bearing rats were administered [^18F]-14 via jugular catheter while in a microPET Focus 220 scanner (Siemens, Munich, Del.). Data were collected in list-mode format for 90 minutes, followed by a CT scan (microCAT II; Siemens) for attenuation correction.
The dynamic PET acquisition was divided into twelve 10-s frames for the first two minutes, three 60-second frames for the following three minutes, and seventeen 300-second frames for the duration of the scan. The raw data within each frame were then binned into three-dimensional sinograms, with a span of three and ring difference of 47. […]

Data set [8] in a line: Radio-TLC radiometabolite analysis of plasma. The conditions noted are these: plasma samples, n=2, preliminary. The class given is in vivo, rat. Here is the method: (§3) Uptake Characteristics of [^18F]-14 in C6 Glioma. The in vivo performance of [^18F]-14 was evaluated in glioma-bearing (C6), male Wistar rats using microPET imaging, with a typical study shown in FIG. 1. MRI (T2-weighted) was used to localize tumors and for registration of anatomical features with PET (FIG. 1A).^11,12,18 Dynamic PET imaging with [^18F]-14 illustrated that the majority of tracer accumulation in the brain was localized to the tumor, with modest accumulation that exceeded plasma in contralateral, non-tumor brain (FIGS. 1B & 1C). The tumor-selective characteristics of [^18F]-14 afforded excellent imaging contrast between tumor and contralateral tissue. FIG. 1G illustrates time—activity curves (TACs) typical of representative studies for tumor (blue), normal brain (green), and plasma (red) over a 90-min dynamic acquisition.
Arterial blood (500 μL) was collected at 2, 12, 30, and 60 minutes following injection of 1.5 mCi of [^18F]-14. After centrifugation, the plasma was extracted with acetonitrile/water (50 μL, 7/1, v/v). The mixture was then centrifuged and the supernatant used for TLC analysis in 10% dichloromethane in methanol. Radiochromatographic data were recorded and collected using a radioisotope detector (Bioscan, Washington, D.C., USA).

A further data set deals with C6 glioma. As to the kind of experiment: Dynamic microPET imaging of tracer uptake in C6 glioma-bearing rats. The data set is classed as in vivo, rat. Here is the method: as §3
All studies involving animals were conducted in compliance with federal and institutional guidelines. Two weeks before imaging, healthy male Wistar rats were stereotactically inculcated in the right hemisphere with 1.0×10^5 C6 glioma cells (American Type Tissue Collection). Prior to imaging, all rats were affixed with venous and arterial catheters.
PET/CT was performed within 24 hours of MRI in rats with confirmed tumors. Tumor-bearing rats were administered [^18F]-14 via jugular catheter while in a microPET Focus 220 scanner (Siemens, Munich, Del.). […]

[9] abbreviates: versus [3H]PK11195, C6 lysate, low-affinity component, read-out: C6 Glioma Ki, low-affinity binding (mixed affinity binding).
Where [10] appears, read: Ki ± S.E.M. versus [3H]PK11195, C6 lysate, high-affinity value where binding is mixed, triplicate, read-out: C6 Glioma Ki.
Where [11] appears, read: Ki ± S.E.M. versus [3H]PK11195, rat heart lysate, triplicate.

Chain of PBR (P30536 whole entry, species assumed): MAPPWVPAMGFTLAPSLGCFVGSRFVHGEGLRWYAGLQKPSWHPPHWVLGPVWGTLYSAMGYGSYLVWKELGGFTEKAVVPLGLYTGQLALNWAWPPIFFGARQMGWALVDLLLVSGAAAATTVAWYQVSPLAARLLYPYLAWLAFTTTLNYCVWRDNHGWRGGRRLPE

Consider `COc1ccc(OC)c(CN(C(=O)CF)c2ccccc2Oc2ccccc2)c1` [Compound 1, reference compound], for which the Ki at TSPO [1] (read-out: Ki for TSPO in C6 glioma (reported), literature values) was 6.17 nM.
Regarding `CN(C)C(=O)Cc1nn(-c2ccccc2F)c(=O)c2c1c1ccc(Cl)cc1n2C` [Compound 9, 2-(7-Chloro-3-(2-fluorophenyl)-5-methyl-4-oxo-4,5-dihydro-3H-pyridazino[4,5-b]indol-1-yl)-N,N-dimethylacetamide], the Ki on TSPO [2] (read-out: Kidney Ki) was 0.00118 ± 4e-05 nM.
On TSPO [3], `CN(C)C(=O)Cc1nn(-c2cccc([N+](=O)[O-])c2)c(=O)c2c1c1ccc(Cl)cc1n2C` [Compound 11, 2-(7-Chloro-5-methyl-3-(3-nitrophenyl)-4-oxo-4,5-dihydro-3H-pyridazino[4,5-b]indol-1-yl)-N,N-dimethylacetamide] returned a Ki of 0.00118 ± 9e-05 nM.
For the molecule `CN(C)C(=O)Cc1nn(-c2ccc(F)cc2)c(=O)c2c1c1ccc(Cl)cc1n2C` [Compound 12, 2-(7-Chloro-3-(4-fluorophenyl)-5-methyl-4-oxo-4,5-dihydro-3H-pyridazino[4,5-b]indol-1-yl)-N,N-dimethylacetamide], the Ki on TSPO [4] (setting [9]) stood at 3.02 ± 1.01 nM; on TSPO [2] (read-out: Kidney Ki, low-affinity binding (mixed affinity binding)) it was 0.969 nM.
Turning to `CN(C)C(=O)Cc1nn(-c2ccccn2)c(=O)c2c1c1ccc(Cl)cc1n2C` [Compound 13, 2-(7-Chloro-5-methyl-4-oxo-3-(pyridin-2-yl)-4,5-dihydro-3H-pyridazino[4,5-b]indol-1-yl)-N,N-dimethylacetamide], the “C6 Glioma Ki” value on TSPO [4] (Ki ± S.E.M. versus [3H]PK11195, C6 lysate, high-affinity value where binding is mixed, triplicate) is “did not appreciably bind TSPO”. The Ki at TSPO [4] (setting [10]) amounted to 2.41 nM; at TSPO [2] (read-out: Kidney Ki) it was 6.8 nM; on TSPO [3], 4.94 nM. Besides, the “Kidney Ki” value on TSPO [2] (Ki ± S.E.M. versus [3H]PK11195, rat kidney lysate, high-affinity value where binding is mixed, triplicate) is given as “did not appreciably bind TSPO”. The “Heart Ki” value at TSPO [3] (setting [11]) is recorded as “did not appreciably bind TSPO”.
For the molecule `CN(C)C(=O)Cc1nn(-c2cccc(F)n2)c(=O)c2c1c1ccc(Cl)cc1n2C` [Compound 14, 2-(7-Chloro-3-(6-fluoropyridin-2-yl)-5-methyl-4-oxo-4,5-dihydro-3H-pyridazino[4,5-b]indol-1-yl)-N,N-dimethylacetamide], the Ki at TSPO [4] (setting [10]) was 0.00119 nM; at TSPO [4] (setting [9]), 1.77 nM; on TSPO [2] (Ki ± S.E.M. versus [3H]PK11195, rat kidney lysate, high-affinity value where binding is mixed, triplicate, read-out: Kidney Ki) it was 0.00221 ± 0.0004 nM; in [5] it was more than 10000 nM; on TSPO [3] (setting [11]), 0.00321 ± 0.0004 nM. The “increase in potency over 2b” value on TSPO [4] (TSPO, in our lab) was 1000 fold.
`CN(C)C(=O)Cc1nn(-c2cccc(Cl)n2)c(=O)c2c1c1ccc(Cl)cc1n2C` [Compound 15, 2-(7-Chloro-3-(6-chloropyridin-2-yl)-5-methyl-4-oxo-4,5-dihydro-3H-pyridazino[4,5-b]indol-1-yl)-N,N-dimethylacetamide]: at TSPO [4] (setting [10]), the Ki came to 0.00234 ± 0.0004 nM.
On the same count and under the same terms, to `CN(C)C(=O)Cc1nn(-c2cccc(Br)n2)c(=O)c2c1c1ccc(Cl)cc1n2C` [Compound 16, 2-(7-Chloro-3-(6-bromopyridin-2-yl)-5-methyl-4-oxo-4,5-dihydro-3H-pyridazino[4,5-b]indol-1-yl)-N,N-dimethylacetamide] belongs 0.00148 ± 0.0002 nM.
On TSPO [6], `CCc1cc(CC)n2nc(-c3ccc(OCCNC(=S)Nc4ccc5c(c4)C(=O)OC54c5ccc(O)cc5Oc5cc(O)ccc54)cc3)c(CC(=O)N(CC)CC)c2n1` [Compound 23] displayed a Ki of 13.8 ± 4.99 nM.
Same read-out and setting: to `CCc1cc(CC)n2nc(-c3ccc(OCCCNC(=S)Nc4ccc5c(c4)C(=O)OC54c5ccc(O)cc5Oc5cc(O)ccc54)cc3)c(CC(=O)N(CC)CC)c2n1` [Compound 24] belongs 111 ± 25.6 nM.
Same read-out and setting: with `CCc1cc(CC)n2nc(-c3ccc(OCCCCCNC(=S)Nc4ccc5c(c4)C(=O)OC54c5ccc(O)cc5Oc5cc(O)ccc54)cc3)c(CC(=O)N(CC)CC)c2n1` [Compound 26] the figure was 185 ± 15.4 nM; with `CCc1cc(CC)n2nc(-c3ccc(OCCCCCCNC(=S)Nc4ccc5c(c4)C(=O)OC54c5ccc(O)cc5Oc5cc(O)ccc54)cc3)c(CC(=O)N(CC)CC)c2n1` [Compound 27], 11.7 ± 4.86 nM; with `CCc1cc(CC)n2nc(-c3ccc(OCCCCCCCNC(=S)Nc4ccc5c(c4)C(=O)OC54c5ccc(O)cc5Oc5cc(O)ccc54)cc3)c(CC(=O)N(CC)CC)c2n1` [Compound 28], 16.3 ± 5.01 nM.
Same read-out and setting: to `CCc1cc(CC)n2nc(-c3ccc(OCCCCCCCCNC(=S)Nc4ccc5c(c4)C(=O)OC54c5ccc(O)cc5Oc5cc(O)ccc54)cc3)c(CC(=O)N(CC)CC)c2n1` [Compound 29] belongs 0.31 ± 0.02 nM.
`COc1ccc(OC)c(CN(C(C)=O)c2cc(F)ccc2Oc2ccccc2)c1` [DAA1106]: the “binding affinity for PBR” value on PBR is “fentomolar”.
Consider `CCc1cc(CC)n2nc(-c3ccc(OCC[18F])cc3)c(CC(=O)N(CC)CC)c2n1` [[^18F]-2b, 2-(5,7-diethyl-2-(4-(2-[^18F]fluoroethoxy)phenyl)pyrazolo[1,5-a]pyrimidin-3-yl)-N,N-diethylacetamide], for which the “enhancement in affinity compared to [18F]-2a” value on TSPO [1] (TSPO) is 36 fold.
On to `CN(C)C(=O)Cc1nn(-c2cccc([18F])n2)c(=O)c2c1c1ccc(Cl)cc1n2C` [[^18F]-14, 7-chloro-N,N,5-trimethyl-4-oxo-3(6-[^18F]fluoropyridin-2-yl)-3,5-dihydro-4H-pyridazino[4,5-b]indole-1-acetamide], for which the “tumor binding after injection of 14, % of the peak tumor uptake” value at TSPO [7] (bolus IV nonradioactive 14 (10 mg/kg) about 30 min after tracer) is given as “approximately 40%”. For the same molecule, the “displaceability by non-radioactive 14” value at TSPO [7] (non-radioactive 14 given halfway through the PET scan) is recorded as “fully displaceable”. Besides, the “% parent at 60 min” value in data set [8] is listed as more than 90%. In addition, in the data set on C6 glioma (preclinical model of glioma (C6), PET), the “tracer accumulation in normal brain and tumor” value was “modest accumulation in normal brain, yet robust accumulation in tumor tissue”. Moreover, in the data set on C6 glioma (time-activity curve, 90-min dynamic acquisition), the “plasma clearance of tracer” value is on record as “quickly cleared the plasma”.
